Data reported in US8846066B2, “Methods and related compositions for reduction of fat and skin tightening” (The Regents of the University of California, priority 2004, dated 2014).

Experiments:
[1] = tested on: porcine fat tissue; test: MTS assay in fresh porcine fat specimens; type: cell-based; conditions: PBF or 5% solutions, 4 hours
Procedure: To measure cell viability after detergent treatment, HaCaT human keratinocyte cells were cultured in DMEM (Dulbecco's modified Eagle's medium) supplemented with 10% fetal calf serum, penicillin, and streptomycin. […] Cell viability was determined by an absorbance spectrophotometer (at 490 nm) after 4 hour incubation with the assay at 37° C. To determine cell viability in fresh tissue, fat specimens were incubated for 4 hours in 24 well plates with stock reagents and the MTS assay. Tissue specimens were then visualized for color change and the amount of MTS in their supernatants was measured by absorbance (at 490 nm). All studies were performed in triplicate. Absorbance at 490 nm (OD 490) is proportional to the number of living cells in the culture.
Porcine tissue was obtained immediately after sacrifice, shaved, and placed on ice for a maximum of four hours before use. […] Calcein retention was determined by tissue fluorescence using purple (411 nm) light and visually observing the emitted green (500 nm) light using an emission filters.
Fresh porcine skin was used to determine if the effects of these detergent substances on cultured cells were similar in tissue. […] The difference in fat cell viability between the solutions was quantified by measuring the absorbance (at 490) of the supernatants collected from the treated fat specimens (FIG. 3b). […]

[2] = tested on: porcine skin (epidermis, dermis, subcutaneous tissue, muscle); test: Histology of full thickness porcine skin after injection
Procedure: Histology was performed by injecting stock reagent solutions (0.5 mL) into full thickness porcine skin at various levels (epidermis, dermis, and subcutaneous tissue) with 1.0 mL syringes and 30-gauge, 0.5 inch needles. Needle depth was visualized along the margin of the porcine tissue with the intent of saturating the target tissue. One hour after incubation with PBS at 37° C., multiple 5.0 mm biopsy specimens were obtained from the injected sites, each condition performed in triplicate. Tissue was fixed in formaldehyde, paraffin-embedded, and stained with hematoxylin-eosin. Specimens were evaluated by a board-certified dermatopathologist who was blinded to the treatment protocol.

[3] = tested on: adipocytes; test: Adipocyte survival on addition of PC to 4.75% DC; type: cell-based; conditions: 5% phosphatidylcholine added to 4.75% DC
Procedure: FIG. 9 illustrates survival of adipocytes when phosphatidylcholine is added to 4.75% sodium deoxycholate solution. On y-axis, 1 represents 100% survival. All % concentrations are w/v %. Survival of the cells in the absence of DC and PC is on an average 0.113.

alkylaryl polyether alcohol [Triton, reference compound]
fat cell viability (MTS purple dye, absorbance at 490) [1]: comparable loss of purple dye

CCCCCCCCCCCC[N+](C)(C)CC(=O)[O-] [Empigen, lauryldimethylbetaine, reference compound]
histologic changes in epidermis, dermis, adnexal structures [2]: loss of fibroblast nuclear staining and hyalinization of dermal collagen

phosphatidylcholine
effect of phosphatidylcholine on adipolysis [3]: inhibits adipolysis slightly
